Experimental data taken from US7772258B2, “Agent for treatment of allergic eye disease” (Nikken Chemicals Co., Ltd., priority 2001, dated 2010).

Tested on: Allergic Conjunctivitis Model
Experiment: Alleviating action for allergic conjunctivitis model (Itch-Scratch response after OA challenge)
Type: in vivo
Conditions: OA-sensitized Wistar rats; positive control 0.3 w/v % suspension in physiological saline dropped into the eyes 10 minutes before OA challenge; scratching counted over 20 minutes after OA
Procedure: or the experiment, Wistar rats (CLEA Japan) were used. The rats were sensitized by intraperitoneal administration of ovalbumin (OA, made by Sigma) in an amount of 100 μg and 10 mg of aluminum hydroxide (Alum, made by Pierce Co.) suspended in 1 mL of physiological saline. Allergic conjunctivitis was induced using rats after 3 weeks from the date of sensitization by dropping into the eyes of 10 μg OA solution prepared by physiological saline to a concentration of 30 mg/mL. The medicine was suspended at a concentration of 1.0 w/v % in physiological saline and dropped into the eyes 10 minutes before OA challenge to induce conjunctivitis (as a positive control drug, diphenhydramine suspended in a concentration of 0.3 w/v % in physiological saline was dropped in the eyes 10 minutes before OA challenge to induce conjunctivitis). For the effect of the compound, the number of times of the action of using the hind legs to scratch the eye area (Itch-Scratch response; considered to be an indicator of itchiness) observed in the 20-minute period after dropping the OA was counted and used to find the rate of inhibition of itchiness by the following formula: Control group: presensitized rats in whose eyes physiological saline is dropped 10 minutes before using OA to induce conjunctivitis Untreated group: unsensitized rats in whose eyes physiological saline is dropped. Calculation Formula: Inhibition rate(%)=100−(test substance group−untreated group/(control group−untreated group)×100

How did the “Inhibition rate (%) of Itch-Scratch response” value (“Inhibition rate (%)” below) turn out when `CN(C)CCOC(c1ccccc1)c1ccccc1` [Diphenhydramine, diphenhydramine, reference compound] was run?
Its value is 64.6%.

Same assay, conditions: OA-sensitized Wistar rats; test substance 1.0 w/v % suspension in physiological saline dropped into the eyes 10 minutes before OA challenge; scratching counted over 20 minutes after OA

`COc1ccc(NC2=C(C)C(=O)CC2)cc1O[C@@H]1C[C@H]2CC[C@@H]1C2` [Compound 4, (−)-3-[3-[(1R,2R,4S)-bicyclo[2.2.1]hept-2-yloxy]-4-methoxyanilino]-2-methyl-2-cyclopenten-1-one] was tested. Which “Inhibition rate (%)” value did it give?
Its value is 68.6%.

How did the “Inhibition rate (%)” value turn out when `CCC1=C(Nc2ccc(OC)c(O[C@@H]3C[C@H]4CC[C@@H]3C4)c2)CCC1=O` (racemic) [Compound 3, 3-[3-[(1RS,2RS,4SR)-bicyclo[2.2.1]hept-2-yloxy]-4-methoxyanilino]-2-ethyl-2-cyclopenten-1-one] was run?
The value was 63.5%.

With `COc1ccc(NC2=C(C)C(=O)CC2)cc1O[C@H]1C[C@@H]2CC[C@H]1C2` [Compound 5, (+)-3-[3-[(1S,2S,4R)-bicyclo[2.2.1]hept-2-yloxy]-4-methoxyanilino]-2-methyl-2-cyclopenten-1-one] as the molecule, how does the “Inhibition rate (%)” value read?
Its value is 97.1%.

`COc1ccc(N(Cc2ccc3ccccc3c2)C2=CC(=O)CC2)cc1OC1CCCC1` [Compound 1, 3-[3-cyclopentyloxy-4-methoxy-N-(2-naphthylmethyl)anilino]-2-cyclopenten-1-one] was tested. Which “Inhibition rate (%)” value did it give?
The value was 82.7%.

How did the “Inhibition rate (%)” value turn out when `COc1ccc(NC2=C(C)C(=O)CC2)cc1O[C@@H]1C[C@H]2CC[C@@H]1C2` (racemic) [Compound 2, 3-[3-[(1RS,2RS,4SR)-bicyclo[2.2.1]hept-2-yloxy]-4-methoxyanilino]-2-methyl-2-cyclopenten-1-one] was run?
The value was 62.9%.
